Each compound was assayed on Cardiomyocyte cell line H9c2 cells (assay: Inhibitory effect on ischemic cell death (chemical hypoxia, DAPI staining)). Conditions: Rattus norvegicus, derivative 10 μM in DMSO, 30 min pretreatment, then chemical hypoxia solution 1 to 2 hours, DAPI stain, fluorescence microscope, DMSO control 25.86385, read-out: Apoptosis (%).
Type: cell-based
Method: The aminopyrazole derivatives of the present invention were examined for ischemic cell death inhibitory effect in cells according to the following procedure.
Cardiomyocyte cell line H9c2 cells were cultured in DMEM (Dulbecco's modified Eagle's medium) supplemented with 10% fetal bovine serum and 1% penicillin/streptomycin (100× solution). The cells were grown in 35 mm dishes such that the number thereof becomes 1×10^4, and cultured at 37° C. for 48 hours in a CO2 incubator. The cells were treated with 0.1% DMSO only (control), or the solutions dissolving the derivatives of Examples 1 to 30 (10 μM) in DMSO respectively. After 30 minutes, the cells were washed with PBS, and continuously treated with the DMSO solution (control) or the above solutions dissolving the derivatives together with chemical hypoxia solution (106 mM NaCl, 4.4 mM KCl, 1 mM MgCl2, 38 mM NaHCO3, 2.5 mM CaCl2, 20 mM 2-deoxy glucose, 1 mM NaCN) for 1 to 2 hours, while evaluating the cell damage by microscope. At the time when the sufficient damage were observed, the cells were washed with 1 ml of PBS twice, and then treated to fix with 1 ml of 3.7% formaldehyde. The cells obtained were washed with 1 ml of PBS again, stained with DAPI, and then washed with 1 ml of PBS in three times. The cell death of the cells was observed by a fluorescence microscope, and the degree of the observed cell death was converted to percentages.

Row | Structure (SMILES) | cytotoxicity at 10 µM [%]
1 | O=C(CSc1ccc(Br)cc1)Nc1cn(CCc2ccccc2)nc1C(=O)O [Example 23, 4-[2-(4-bromo-phenylsulfanyl)-acetylamino]-1-phenethyl-1H-pyrazole-3-carboxylic acid] | 7.76
2 | COC(=O)c1cc(NC(=O)CSc2ccccc2)n(C)n1 [Example 22, 1-methyl-5-(2-phenylsulfanyl-acetylamino)-1H-pyrazole-3-carboxylic acid methyl ester] | 10.7
3 | NC(=O)c1nn(CCc2ccccc2)cc1NC(=O)CSc1ccc(Br)cc1 [Example 25, 4-[2-(4-bromo-phenylsulfanyl)-acetylamino]-1-phenethyl-1H-pyrazole-3-carboxylic acid amide] | 6.07
4 | COC(=O)c1nn(CCc2ccccc2)cc1NC(=O)C[S+]([O-])c1ccccn1 (stereo not drawn) [Example 9, 4-[2-(2-pyridylsulfinyl)-acetylamino]-1-phenethyl-1H-pyrazole-3-carboxylic acid methyl ester] | 3.74
5 | COC(=O)c1nn(C)cc1NC(=O)CSc1ccc(Br)cc1 [Example 14, 4-[2-(4-bromo-phenylsulfanyl)-acetylamino]-1-methyl-1H-pyrazole-3-carboxylic acid methyl ester] | 13.3
6 | COCc1nn(CCc2ccccc2)cc1NC(=O)CSc1ccc(Br)cc1 [Example 30, 2-(4-bromo-phenylsulfanyl)-N-(3-methoxymethyl-1-phenethyl-1H-pyrazol-4-yl)-acetamide] | 5.22
7 | O=C(CSc1ccc(Br)cc1)Nc1cn(CCc2ccccc2)nc1C1=NCCO1 [Example 24, 2-(4-bromo-phenylsulfanyl)-N-[3-(4,5-dihydro-oxazol-2-yl)-1-phenethyl-1H-pyrazol-4-yl]-acetamide] | 12.7
8 | COC(=O)c1c(NC(=O)CSc2ccc(Br)cc2)cnn1C [Example 17, 4-[2-(4-bromo-phenylsulfanyl)-acetylamino]-2-methyl-2H-pyrazole-3-carboxylic acid methyl ester] | 13.9
9 | CCOC(=O)c1cnn(CCc2ccccc2)c1NC(=O)CSc1ccc(Br)cc1 [Example 19, 5-[2-(4-bromo-phenylsulfanyl)-acetylamino]-1-phenethyl-1H-pyrazole-4-carboxylic acid ethyl ester] | 8.19
10 | COC(=O)c1nn(CCc2ccccc2)cc1NC(=O)CSc1ccc(C)cc1 [Example 6, 4-[2-(4-methyl-phenylsulfanyl)-acetylamino]-1-phenethyl-1H-pyrazole-3-carboxylic acid methyl ester] | 5.43
11 | COC(=O)c1nn(CCc2ccccc2)cc1NC(=O)CSc1ccc(C)c(C)c1 [Example 11, 4-[2-(3,4-dimethyl-phenylsulfanyl)-acetylamino]-1-phenethyl-1H-pyrazole-3-carboxylic acid methyl ester] | 15.7
12 | COC(=O)c1nn(CCc2ccccc2)cc1NC(=O)CSc1ccccn1 [Example 8, 4-[2-(2-pyridylsulfanyl)-acetylamino]-1-phenethyl-1H-pyrazole-3-carboxylic acid methyl ester] | 5.65
13 | COC(=O)c1nn(CCc2ccccc2)cc1NC(=O)CSc1ccc(Br)cc1 [Example 1, 4-[2-(4-bromo-phenylsulfanyl)-acetylamino]-1-phenethyl-1H-pyrazole-3-carboxylic acid methyl ester] | 5.79
14 | COC(=O)c1nn(Cc2ccccc2)cc1NC(=O)CSc1ccccc1 [Example 13, 4-[2-phenylsulfanylacetylamino]-1-benzyl-1H-pyrazole-3-carboxylic acid methyl ester] | 9.81
15 | COC(=O)c1nn(CCc2ccccc2)cc1NC(=O)CNc1ccc(Br)cc1 [Example 29, 4-[2-(4-bromo-phenylamino)-acetylamino]-1-phenethyl-1H-pyrazole-3-carboxylic acid methyl ester] | 9.31
16 | COC(=O)c1c(NC(=O)CSc2ccc(Br)cc2)cnn1CCc1ccccc1 [Example 16, 4-[2-(4-bromo-phenylsulfanyl)-acetylamino]-2-phenethyl-2H-pyrazole-3-carboxylic acid methyl ester] | 10.8
17 | COC(=O)c1cc(NC(=O)CSc2ccc(Br)cc2)n(C)n1 [Example 21, 5-[2-(4-bromo-phenylsulfanyl)-acetylamino]-1-methyl-1H-pyrazole-3-carboxylic acid methyl ester] | 8.33
18 | COC(=O)c1nn(CCc2ccccc2)cc1NC(=O)CSc1cccc(OC)c1 [Example 3, 4-[2-(3-methoxy-phenylsulfanyl)-acetylamino]-1-phenethyl-1H-pyrazole-3-carboxylic acid methyl ester] | 8.26
19 | COC(=O)c1nn(CCc2ccccc2)cc1NC(=O)CCSc1ccc(Br)cc1 [Example 18] | 8.75
20 | COC(=O)c1nn(CCc2ccccc2)cc1NC(=O)C(Sc1ccc(Br)cc1)c1ccccc1 (stereo not drawn) [Example 20, 4-[2-(4-bromo-phenylsulfanyl)-2-phenyl-acetylamino]-1-phenethyl-1H-pyrazole-3-carboxylic acid methyl ester] | 6.07
21 | COC(=O)c1nn(CCc2ccccc2)cc1NC(=O)CSc1ccc([N+](=O)[O-])cc1 [Example 4, 4-[2-(4-nitro-phenylsulfanyl)-acetylamino]-1-phenethyl-1H-pyrazole-3-carboxylic acid methyl ester] | 3.74
22 | COC(=O)c1nn(CCc2ccccc2)cc1NC(=O)CSc1ccc(F)cc1 [Example 7, 4-[2-(4-fluoro-phenylsulfanyl)-acetylamino]-1-phenethyl-1H-pyrazole-3-carboxylic acid methyl ester] | 6.49
23 | COC(=O)c1nn(Cc2ccccc2)cc1NC(=O)CSc1ccc(Br)cc1 [Example 12, 4-[2-(4-bromo-phenylsulfanyl)-acetylamino]-1-benzyl-1H-pyrazole-3-carboxylic acid methyl ester] | 11.5
24 | COC(=O)c1nn(CCc2ccccc2)cc1NC(=O)CSc1ccccc1N [Example 5, 4-[2-(2-amino-phenylsulfanyl)-acetylamino]-1-phenethyl-1H-pyrazole-3-carboxylic acid methyl ester] | 6.48
25 | O=C(CSc1ccc(Br)cc1)Nc1cn(CCc2ccccc2)nc1CO [Example 26, 2-(4-bromo-phenylsulfanyl)-N-(3-hydroxymethyl-1-phenethyl-4H-pyrazol-4-yl)-acetamide] | 7.27
26 | COC(=O)c1nn(C)cc1NC(=O)CSc1ccccc1 [Example 15, 4-[2-phenylsulfanylacetylamino]-1-methyl-1H-pyrazole-3-carboxylic acid methyl ester] | 11.3
27 | COC(=O)c1nn(CCc2ccccc2)cc1NC(=O)COc1ccc(Br)cc1 [Example 28, 4-[2-(4-bromophenoxy)-acetylamino]-1-phenethyl-1H-pyrazole-3-carboxylic acid methyl ester] | 3.74
28 | COC(=O)c1nn(CCc2ccccc2)cc1NC(=O)CSc1ccccc1 [Example 2, 4-[2-(phenylsulfanyl)-acetylamino]-1-phenethyl-1H-pyrazole-3-carboxylic acid methyl ester] | 11
29 | COC(=O)c1nn(CCc2ccccc2)cc1NC(=O)CCc1ccccc1 [Example 27, 4-[3-phenyl-propionylamino]-1-phenethyl-4H-pyrazole-3-carboxylic acid methyl ester] | 5.08
30 | COC(=O)c1nn(CCc2ccccc2)cc1NC(=O)CS(=O)(=O)c1ccccn1 [Example 10, 4-[2-(2-pyridylsulfonyl)-acetylamino]-1-phenethyl-1H-pyrazole-3-carboxylic acid methyl ester] | 7.27

Reference: patent US7939550B2, “Aminopyrazole derivatives, process for the preparation thereof, and composition for preventing or treating ischemic diseases containing the same” (Korea Research Institute of Chemical Technology, priority 2006, dated 2011)
